From ChEMBL document CHEMBL2311459, “Naphthyridinone (NTD) integrase inhibitors: N1 protio and methyl combination substituent effects with C3 amide groups” (Bioorg Med Chem Lett, 2013) come the findings set out here.

Series [1] in a line: Ratio of plasma concentration in CD rat at 1 mg/kg, iv and 5 mg/kg, po after 24 hrs to IC50 for HIV in presence of 40 mg/mL of purified human serum albumin. The class given is ADME, organism-based. As to conditions: in vivo.
The nature of series [2]: AUC in CD rat at 5 mg/kg, po. The class given is ADME, organism-based. More on the design: dose 5 mg/kg, route oral. As to conditions: plasma.
Series [3] can be described thus: Plasma clearance in CD rat at 1 mg/kg, iv and 5 mg/kg, po. It is filed as ADME, organism-based.
Series [4] is described as follows: Therapeutic index, ratio of cytotoxicity against human MT4 cells to antiviral activity against HIV. The class given is cell-based. As to conditions: read-out: TI.
In series [5] the test system is Human immunodeficiency virus. As to the kind of experiment: Antiviral activity against HIV infected in human MT4 cells. It is filed as functional, organism-based. As to conditions: Human immunodeficiency virus 1, MT4.
Series [6] has as its system Human immunodeficiency virus. Nature of the series: Antiviral activity against HIV in presence of 40 mg/mL of purified human serum albumin. It is filed as functional, organism-based. As to conditions: Human immunodeficiency virus 1.
Series [7] addresses Human immunodeficiency virus type 1 integrase (Human immunodeficiency virus 1, UniProt Q7ZJM1). Nature of the series: Inhibition of HIV1 integrase strand transfer activity.
The subject of series [8] is Human immunodeficiency virus. As to the kind of experiment: Antiviral activity against HIV. The class given is functional, organism-based. The settings on record: Human immunodeficiency virus 1.

Sequence of Human immunodeficiency virus type 1 integrase (Q7ZJM1 whole entry): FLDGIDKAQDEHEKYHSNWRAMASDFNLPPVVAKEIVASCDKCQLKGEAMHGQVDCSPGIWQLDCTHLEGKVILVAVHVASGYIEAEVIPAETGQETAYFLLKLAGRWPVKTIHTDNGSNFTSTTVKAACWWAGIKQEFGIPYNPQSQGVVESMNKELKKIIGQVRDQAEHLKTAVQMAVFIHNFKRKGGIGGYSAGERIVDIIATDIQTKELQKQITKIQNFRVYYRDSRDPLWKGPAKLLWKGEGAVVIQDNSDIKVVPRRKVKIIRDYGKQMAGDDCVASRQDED

By AUC is commonly meant concentration integrated over time. Low values mean low exposure, high ones high exposure. What is called IC50 is the concentration at which inhibition is half-maximal. Consider `Cn1c(=O)c(C(=O)NCCO)c(O)c2ncc(Cc3ccc(F)cc3)cc21` [GSK-364735], for which the Ratio in series [1] worked out at 0.3. The compound further showed an AUC in series [2] of 22800 ng·h/mL. In series [3], this compound gave a clearance of 3.2 mL/min/kg. Moreover, the selectivity ratio in series [4] was greater than 2000. Also, the IC50 in series [5] was found to be 5 nM; in series [6] it was 20 nM; in series [7], 8 nM; in series [8] it was 2 nM.
